The source made the active and inactive calls.
How the values were obtained:
[1] = cells
[2] = target: Major prion protein (Homo sapiens, UniProt P04156); assay type: functional, cell-based
[3] = system: Vero; assay: host cell cytotoxicity of antiviral hits, dose response, cytotoxicity control for West Nile virus antiviral project, secondary assay (AID 1650); assay type: functional; conditions: Chlorocebus sabaeus
[4] = system: BJ; assay: cytotoxicity toward BJ-TERT fibroblasts, dose response, cell-based, RAS-independent, luminescence (AID 1933); assay type: functional; conditions: Homo sapiens
[5] = cytotoxicity in MIN6 insulinoma cells, dose response, cytotoxicity control, cell-based, mouse insulinoma (AID 2122); assay type: functional;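 further: confirmatory high-throughput counterscreen run to flag cytotoxic compounds; mouse MIN-6 beta cells carrying an insulin promoter eGFP reporter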
[6] = system: INS1; assay: beta cell apoptosis inhibitors, cytokine rescue, dose response, luminescence, retest (AID 449756); assay type: functional, cell-based; conditions: Rattus norvegicus;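 further: cell death triggered by IL-1 beta plus TNF-alpha plus IFN-gamma mixture; protective hits raise ATP signal compared with cytokine alone wells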
[7] = system: Streptococcus; assay: Group A Streptococcus viability loss, dose response, counter-screen for streptokinase expression inhibitor project, luminescence, BacTiterGlo (AID 1915); assay type: functional, organism-based;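 further: potency for reduction of bacterial viability or growth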
[8] = cytotoxicity toward DRD oncogenic fibroblasts, dose response, cell-based, non-viral oncogenic, luminescence (AID 1934); assay type: functional; conditions: Homo sapiens
[9] = target: Heat shock protein HSP 90-alpha (Homo sapiens, UniProt P07900); assay type: functional, organism-based
[10] = insulin promoter down-regulators in MIN6 cells, imaging, high-content screening, mouse beta cells (AID 1628); assay type: functional
[11] = target: Hexokinase-1 (Homo sapiens, UniProt P19367); assay: hexokinase 1 activators, dose response, selectivity assay for HKDC1 activator project, biochemical (AID 504762); assay type: functional
[12] = system: Streptococcus sp. 'group A'; assay: growth inhibition of control SK(-) GAS strain, dose response, counter-screen for streptokinase expression inhibitor project, luminescence, kanamycin, BacTiterGlo, confirmation (AID 1900); assay type: functional, organism-based
[13] = system: BJ; assay: cells; assay type: functional, cell-based; conditions: Homo sapiens
[14] = system: BJ; assay: cytotoxicity toward Ras-transformed BJeLR fibroblasts, dose response, cell-based, alamar blue fluorescence, cherrypicked samples (AID 2631); assay type: functional; conditions: Homo sapiens;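 further: confirmatory dose-response assay in RAS-dependent BJ fibroblasts engineered with TERT, LT and ST, with cytotoxicity read by fluorescence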
[15] = HepG2 cell cytotoxicity, dose response, cytotoxicity control, ATP luminescence, cherry-pick, activator set 2 (AID 1053143); assay type: functional, cell-based
[16] = system: BJ; assay: cytotoxicity toward BJ-TERT-LT-ST fibroblasts, dose response, cell-based, RAS-independent, luminescence (AID 1935); assay type: functional; conditions: Homo sapiens;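 further: BJ fibroblasts immortalized with TERT plus LT and ST oncogenes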
[17] = target: T1, Hexokinase HKDC1 (Homo sapiens, UniProt Q2TB90); assay: HKDC1 hexokinase activators, dose response, biochemical, W721R variant (AID 504730); assay type: functional
T1 sequence (Q2TB90 whole entry): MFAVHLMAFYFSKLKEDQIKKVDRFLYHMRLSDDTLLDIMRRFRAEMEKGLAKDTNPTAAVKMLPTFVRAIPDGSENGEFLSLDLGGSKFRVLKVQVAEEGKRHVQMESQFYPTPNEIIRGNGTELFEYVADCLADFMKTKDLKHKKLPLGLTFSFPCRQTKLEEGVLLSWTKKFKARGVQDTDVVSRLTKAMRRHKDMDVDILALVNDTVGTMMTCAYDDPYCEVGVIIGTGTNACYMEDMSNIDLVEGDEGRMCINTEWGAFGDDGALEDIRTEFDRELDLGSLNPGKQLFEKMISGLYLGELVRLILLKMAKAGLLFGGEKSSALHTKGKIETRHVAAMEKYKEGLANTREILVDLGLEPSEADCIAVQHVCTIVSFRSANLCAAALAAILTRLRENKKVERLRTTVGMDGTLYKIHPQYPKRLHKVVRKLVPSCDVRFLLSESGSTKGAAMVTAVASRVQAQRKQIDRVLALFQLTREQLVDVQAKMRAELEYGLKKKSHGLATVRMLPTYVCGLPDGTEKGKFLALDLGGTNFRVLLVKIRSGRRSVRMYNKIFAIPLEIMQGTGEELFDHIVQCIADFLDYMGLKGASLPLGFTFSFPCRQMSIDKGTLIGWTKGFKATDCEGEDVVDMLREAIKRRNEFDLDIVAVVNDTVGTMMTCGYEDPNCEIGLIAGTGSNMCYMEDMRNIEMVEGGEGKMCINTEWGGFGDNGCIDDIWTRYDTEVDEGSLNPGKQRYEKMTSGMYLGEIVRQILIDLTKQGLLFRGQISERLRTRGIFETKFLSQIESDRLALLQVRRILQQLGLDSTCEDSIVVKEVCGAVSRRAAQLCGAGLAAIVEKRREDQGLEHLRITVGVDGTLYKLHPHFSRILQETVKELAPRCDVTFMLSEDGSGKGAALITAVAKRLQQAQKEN

[18] = target: Nonstructural protein 1 (Influenza A virus, UniProt Q194T2); assay type: functional, Influenza A virus (A/California/07/2009(H1N1))
[19] = target: Paired box protein Pax-8 (Homo sapiens, UniProt Q06710); assay: inhibitors of PAX8-driven TPO luciferase reporter, dose response, RMG-I cells, cherry-pick (AID 687027); assay type: functional, cell-based;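 further: luciferase reporter driven by Pax8 target thyroperoxidase promoter measured by SteadyGlo luminescence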
[20] = cytotoxicity in OVCAR8 ovarian cancer cells, dose response, PAX8 project, cell-based, plate reader, dry powder samples (AID 743197); assay type: functional; conditions: OVCAR-8
[21] = A2780 ovarian cancer cell cytotoxicity, dose response, cytotoxicity control, plate reader, dry powder samples (AID 743046); assay type: functional, cell-based
[22] = inhibitors of CMV-promoter luciferase reporter, dose response, counter-screen for Pax8 inhibitor project, cell-based, HEK293, luminescence, dry powder (AID 743020); assay type: functional
[23] = NIH:OVCAR-3 ovarian cancer cell cytotoxicity, dose response, PAX8 inhibitor project, plate reader, dry powder samples (AID 743044); assay type: functional, cell-based
[24] = IGROV1 ovarian cancer cell cytotoxicity, dose response, PAX8 inhibitor project, plate reader, dry powder samples (AID 743043); assay type: functional, cell-based; conditions: IGROV-1
[25] = cells; assay type: functional, cell-based
[26] = target: T2, Trace amine-associated receptor 1 (Homo sapiens, UniProt Q96RJ0); assay: Fluorescence-based cell-based high throughput dose response assay to identify agonists of the human trace amine associated receptor 1 (TAAR1).; assay type: functional
[27] = cells; assay type: functional, cell-based; remark: listed apart in the source
[28] = target: T2, Trace amine-associated receptor 1; assay: Counterscreen for agonists of the human trace amine associated receptor 1 (hTAAR1): Fluorescence-based cell-based high throughput dose response assay to identify hTAAR1 agonist that also desensitize TAAR1 receptor response.; assay type: functional
[29] = target: T3, Scavenger receptor class B member 1 (Mus musculus, UniProt Q61009); assay: inhibitors of SR-BI dependent HDL uptake, dose response, ldlA[mSR-BI] CHO cells, fluorescence plate reader, dry powder, set 9 (AID 623880); assay type: functional, cell-based
T3 sequence (Q61009 whole entry): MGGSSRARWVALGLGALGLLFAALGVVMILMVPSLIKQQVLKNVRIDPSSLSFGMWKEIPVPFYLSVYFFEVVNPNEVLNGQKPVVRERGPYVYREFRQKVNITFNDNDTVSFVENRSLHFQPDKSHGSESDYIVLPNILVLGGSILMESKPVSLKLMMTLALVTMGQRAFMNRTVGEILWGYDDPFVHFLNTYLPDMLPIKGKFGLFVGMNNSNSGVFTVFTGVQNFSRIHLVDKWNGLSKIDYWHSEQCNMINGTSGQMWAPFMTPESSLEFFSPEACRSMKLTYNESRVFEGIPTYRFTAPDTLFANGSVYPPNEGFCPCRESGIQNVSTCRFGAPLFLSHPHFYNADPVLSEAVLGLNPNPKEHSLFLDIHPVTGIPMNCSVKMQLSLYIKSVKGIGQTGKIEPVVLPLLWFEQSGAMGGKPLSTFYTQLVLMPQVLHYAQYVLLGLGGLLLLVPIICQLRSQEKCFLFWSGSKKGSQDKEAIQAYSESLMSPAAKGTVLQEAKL

[30] = cytotoxicity in ldlA[mSR-BI] CHO cells, dose response, cytotoxicity control for SR-BI HDL uptake inhibitor project, cell-based, CellTiter-Glo, 24 h, powder samples, set 7 (AID 624026); assay type: functional
[31] = target: T3, Scavenger receptor class B member 1; assay: inhibitors of SR-BI-mediated HDL uptake, dose response, cell-based, ldlA[mSR-BI] CHO, DiI fluorescence, dry powder, set 10 (AID 624029); assay type: functional
[32] = target: Nuclear receptor subfamily 0 group B member 1 (Homo sapiens, UniProt P51843); assay type: functional, cell-based;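 further: HEK293T cells transfected with SF-1 and DAX-1 plus StAR promoter luciferase reporter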
[33] = cells; assay type: functional, cell-based; remark: listed apart in the source
[34] = HEK293T cytotoxicity, dose response, cytotoxicity control for miR-122 modulator project, cell-based, inhibitor set, cherry-pick, set 2 (AID 720697); assay type: functional
[35] = Late stage assay provider results from the probe development effort to identify selective inhibitors of heat shock protein 90 (HSP90): Absorbance-based cell proliferation assay in SKBR3 cells.; assay type: functional; conditions: SK-BR-3
[36] = system: HEK293; assay: cells; conditions: Homo sapiens
[37] = Late stage assay provider results from the probe development effort to identify selective inhibitors of heat shock protein 90 (HSP90): Absorbance-based cell proliferation assay in MCF7 cells.; assay type: functional
[38] = system: HEK293; assay: cells; conditions: Homo sapiens; remark: listed apart in the source
[39] = human group III sPLA2 inhibitors, dose response, biochemical, QFRET, IC50 (AID 743457);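 further: green fluorescence rise as the enzyme cleaves BODIPY PC-A2 in liposomes; potency for inhibition of the enzyme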

With `Cc1ccc(S(=O)(=O)N2CCCCC2)cc1NC(=O)CSc1ncnc2ccccc12` the IC50 [1] was > 138 µM (inactive) and the IC50 [2] was 5.6 µM (active).

In the case of `CC(C)(C)c1nnc(N/N=C/c2cc(Br)ccc2O)n(N)c1=O`, the CC50 [3] is reported as 5 µM (active), the EC50 [4] is reported as 0.681 µM (active) and the IC50 [5] is reported as 2.08 µM (active). For the same compound, the AC50 [6] was 0.859 µM (active), the EC50 [7] was 3.18 µM (active) and the EC50 [8] was 1.01 µM (active). The AC50 [9] was 5.57 µM (active), the IC50 [10] was 1.81 µM (active) and the EC50 [11] was > 80 µM (inactive). The EC50 [12] was 2.91 µM (active), the EC50 [13] was 3.69 µM (inconclusive) and the EC50 [14] was 1.24 µM (active). The AC50 [15] was 5.77 µM (active), the EC50 [16] was 0.706 µM (inconclusive) and the EC50 [17] was 19.9 µM (active). The IC50 [18] was 16.6 µM (active).

With `C[C@@H]1CCCCO[C@H](CN(C)Cc2ccc(C(F)(F)F)cc2)[C@@H](C)CN([C@@H](C)CO)C(=O)c2cc(NC(=O)Nc3ccc(F)cc3)ccc2O1` the AC50 [19] was 5.36 µM (active), the AC50 [20] was 32.1 µM (active) and the AC50 [21] was 51.7 µM (active). The AC50 [22] was 35.7 µM (active), the AC50 [23] was 21.4 µM (active) and the AC50 [24] was 43.6 µM (active).

For `O=C(NCCc1cccs1)C1CC(c2cccc(F)c2)=NO1` (centres undefined), the IC50 [25] was > 29.9 µM (inactive), the EC50 [26] was 13.7 µM (inactive) and the EC50 [27] was > 29.9 µM (inactive). For the same compound, the IC50 [28] was 2.6 µM (active).

In the case of `CC(=O)Nc1ccc(Cl)c(C(=O)Nc2ccc(N3CCN(C(=O)OC(C)(C)C)CC3)cc2)c1`, the AC50 [29] is reported as 0.00659 µM (active), the AC50 [30] is reported as > 70 µM (inactive) and the AC50 [31] is reported as 0.00402 µM (active).

With `O=C(COc1ccccc1)Nc1cccc(-c2ccc(N3CCOCC3)nn2)c1` the IC50 [32] was > 67.5 µM (inactive) and the IC50 [33] was > 67.5 µM (inactive).

In the case of `COc1cccc(NC(=O)Nc2ccc3c(c2)C(=O)N(C)C[C@@H](OC)[C@@H](C)CN[C@H](C)CO3)c1`, the AC50 [34] is reported as 1.49 µM (active).

With `O=C(NCCc1ccc(F)cc1)c1coc(=O)c(Br)c1` the IC50 [35] was 5.3 µM (active), the EC50 [36] was > 59.7 µM (inactive) and the IC50 [37] was 2.1 µM (active). For the same compound, the EC50 [38] was > 59.7 µM (inactive).

In the case of `O=C1C(=O)N(Cc2ccc(-c3ccccc3)cc2)c2ccc(OC(F)(F)F)cc21`, the IC50 [39] is reported as 32 µM (inactive).

Reference: ChEMBL document CHEMBL1201862, “PubChem BioAssay data set” (2004)
